Measurements published in patent US12576047B2, “Telomerase activating compounds for use in fertility and related applications” (Neuromagen Pharma Ltd, priority 2017, dated 2026).

What was measured:
sperm = assay: Sperm head morphology after X-ray radiation; assay type: in vivo, mouse; settings: X-ray 2.5 Gy, single S.C. injection 6 mg/kg, 12 hours
Procedure: Three-month old mice were irradiated with X-ray (2.5 Gy) and treated with a single S.C. injection of 6 mg/kg of compound 68 or 70. Mice were sacrificed 12 hours later and sperm were removed from the epididymis and stained with eosin. The number of morphologically defective sperm (head morphology) were quantified and presented as a percentage value of the total sperm count (N=6 mice per group) (FIG. 26A). FIG. 26B provides a light micrograph showing healthy and defective sperm head morphology observed. The arrows labeled 1 and 2 point to defective sperm head morphology, and the arrows labeled 3 and 4 point to healthy sperm head morphology

CREM = CREM expression in X-ray irradiated testis; assay type: in vivo, mouse; settings: X-ray 2.5 Gy then injection, 12 hrs
Procedure: (§1) Toward this end, ICR mice (3 months old) were injected with 6 mg/kg of Compound 79, Compound 68 or Compound 70, or mice were subjected to X-ray radiation (2.5 Gy) followed by immediately injection of the respective compounds. Control mice were untreated or vehicle treated with or without exposure to X-ray radiation. The testes were removed 12 hrs after treatments and subjected to protein extracts or total RNA preparations for the examination of telomerase activity by TRAP assay, telomerase expression by Western blot and real time PCR. Testes were also taken for immunohistochemical and immunofluorescence analysis with various spermatogenesis markers. Epididymis was also taken for sperm count.

mouse testes = assay: H&E histology of testes after X-ray radiation; assay type: in vivo; settings: X-ray 2.5 Gy then injection, 12 hrs
Procedure: as §1

ICR mice = assay: Sperm count from the epididymis, with or without X-ray radiation; assay type: in vivo, mouse
Procedure: as §1, with “The testes were removed 12 hrs after treatments and subjected to protein extracts or total RNA preparations for the examination of telomerase activity by TRAP assay, telomerase expression by Western blot and real time PCR.” left out

female mice = assay: Progesterone levels in mouse serum; assay type: in vivo; settings: compared to DMSO or UT, 12 hrs post treatment, P, E, and M stages
Procedure: Blood samples were taken from the sacrificed mouse and following centrifugation (3800 rpm, 10 min) the serum was sent to the clinical endocrinology laboratory (Soroka University Medical Center, Beer-Sheva, Israel) for determination of progesterone levels.

[1] = tested on: Telomerase reverse transcriptase (TERT); assay: TERT relative mRNA levels by qRT-PCR in granulosa cells; assay type: cell-based, rat; settings: 50 nM and 200 nM for 6 hours
Procedure: (§2) Immortalized rat granulosa cells expressing FSH receptor were treated with either pregnant mare serum gonadotropin (PMSG), or the indicated compounds, or both for 6 hours. Protein extracts prepared from these cells served for telomerase activity measurement using a telomere repeat amplification protocol (TRAP) assay.
(§3) Briefly, protein extract incubated with oligonucleotide, which serves as a template for telomerase (TS), for 45 minutes at 30° C. followed by PCR with reverse primer (ACX) and internal control. PCR products were separated on 4.5% agarose gel. RNA extracts were used for cDNA synthesis and quantitative real time PCR with specific primers to Telomerase reverse transcriptase (TERT), Steroidogenic acute regulatory protein (StAr) and β-actin as a reference gene. To measure progesterone levels secreted by the cells, granulosa cells were cultured with or without 1 IU/mL PMSG and DMSO, Compound 79 50 nM or compound 70 50 nM in the presence of 100 nM dexamethasone. After 24 hours progesterone levels cell-culture medium were determined by radioimmunoassay (RIA). For cell proliferation measurement, 1×10^5 cells were seeded in a 96 wells plate with 1 IU/mL PMSG and DMSO, Compound 79 50 nM or Compound 70 50 nM. After 24 hours cells viability was measured by XTT proliferation assay.

[2] = tested on: Steroidogenic acute regulatory protein (StAr); assay: StAr relative mRNA levels by qRT-PCR in granulosa cells; assay type: cell-based, rat; settings: 50 nM for 6 hours
Procedure: as §2, §3

telomerase = biological target: T1, telomerase (Rattus norvegicus, UniProt Q673L6); assay: TRAP assay of telomerase activity in granulosa cells; assay type: cell-based; settings: 50 nM and 200 nM for 6 hours
T1 construct: Protein extracts prepared from these cells served for telomerase activity measurement; endogenous in cells; host or cells: immortalized rat granulosa cells expressing FSH receptor
T1 sequence (Q673L6 whole entry): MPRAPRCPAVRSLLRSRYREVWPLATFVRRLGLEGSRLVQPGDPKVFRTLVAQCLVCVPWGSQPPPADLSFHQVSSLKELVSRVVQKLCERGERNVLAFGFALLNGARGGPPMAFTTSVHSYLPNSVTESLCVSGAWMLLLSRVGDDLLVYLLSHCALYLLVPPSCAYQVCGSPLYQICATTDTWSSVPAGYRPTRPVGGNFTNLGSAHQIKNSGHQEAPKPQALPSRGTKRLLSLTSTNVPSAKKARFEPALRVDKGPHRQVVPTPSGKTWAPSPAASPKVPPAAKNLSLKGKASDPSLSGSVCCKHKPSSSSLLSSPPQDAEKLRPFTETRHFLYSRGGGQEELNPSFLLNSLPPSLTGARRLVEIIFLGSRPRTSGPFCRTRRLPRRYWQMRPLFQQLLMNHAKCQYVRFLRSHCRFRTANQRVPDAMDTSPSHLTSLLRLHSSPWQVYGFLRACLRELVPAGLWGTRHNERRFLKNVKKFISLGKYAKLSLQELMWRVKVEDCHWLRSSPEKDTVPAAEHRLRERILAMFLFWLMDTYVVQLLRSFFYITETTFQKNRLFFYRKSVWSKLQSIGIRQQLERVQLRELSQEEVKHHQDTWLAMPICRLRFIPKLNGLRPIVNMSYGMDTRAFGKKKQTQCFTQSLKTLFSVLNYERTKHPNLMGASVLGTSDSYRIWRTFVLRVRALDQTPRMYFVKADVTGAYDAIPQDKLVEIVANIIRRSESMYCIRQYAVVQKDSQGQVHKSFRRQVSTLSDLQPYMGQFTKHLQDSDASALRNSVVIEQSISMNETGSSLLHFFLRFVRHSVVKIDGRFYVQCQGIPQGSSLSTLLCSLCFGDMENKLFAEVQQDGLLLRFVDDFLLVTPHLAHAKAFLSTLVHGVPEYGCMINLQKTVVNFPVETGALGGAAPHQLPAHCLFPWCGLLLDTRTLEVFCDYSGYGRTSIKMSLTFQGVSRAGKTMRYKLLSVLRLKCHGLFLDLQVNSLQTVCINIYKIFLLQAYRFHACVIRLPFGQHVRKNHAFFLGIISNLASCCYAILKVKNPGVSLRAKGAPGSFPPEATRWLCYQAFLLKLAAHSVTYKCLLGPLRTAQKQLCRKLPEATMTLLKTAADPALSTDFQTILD
Procedure: as §2, §3

CC(c1cc(Br)c(O)c(Br)c1)(c1cc(Br)c(O)c(Br)c1)c1cc(Br)c(O)c(Br)c1 [Compound 68]
number of defective sperm cells (head morphology) (sperm): reduction in the number of defective sperm cells | CREM expression in testis (CREM): restored the expression of the spermatogenesis markers | morphology of testicular tissue (H&E) (mouse testes): protected the spermatogonia cells layer from the damaging effects of X-ray and the morphology of the testicular tissue remained intact | sperm count (ICR mice; irradiated mice, 9 and 30 days post irradiation): increased sperm count at 9 and 30 days post irradiation | sperm cells number from the epididymis (ICR mice; non-irradiated mice, 12 hrs post treatment, compared to DMSO): a significant increase

CCOCc1cc(C(C)(c2cc(COCC)c(O)c(COCC)c2)c2cc(COCC)c(O)c(COCC)c2)cc(COCC)c1O [Compound 79]
increase in the secretion of progesterone (female mice): up to 5 folds | TERT relative mRNA levels [1]: increased expression in a dose-dependent fashion | expression of StAr [2]: increased expression of StAr | telomerase activity (TRAP) (telomerase): increased expression in a dose-dependent fashion
